“And” between values parts separate entries of the source, which are not always exact repeats. Equal values may be shown once.
Legend:
[1] = system: HepG-2 cells (hepatocellular carcinoma); assay: MTT anti-proliferative assay, HepG-2; format: cell-based, human
Description: Anti-proliferative activities of the target compounds were assessed via the standard MTT method[38–40] against three cancer cell lines, namely, hepatocellular carcinoma (HepG-2), colorectal carcinoma (HCT-116), and human breast adenocarcinoma (MCF-7).
Anti-proliferative activity of the synthesised compounds was estimated using the MTT assay protocol[8]^,[38–40] as shown in Supplementary data.
4.2.1. In vitro anti-proliferative activity against MCF-7, HepG-2 and HCT-116 The cells were cultured in RPMI-1640 medium supplemented with 10% fetal bovine serum (FBS), penicillin (100 unit /mL) and streptomycin sulphate (100µg/mL) at 37 °C in a 5% CO2 incubator.
Then, cells were dropped in 96-well plates at a density of 3-8 × 10^3 cells/well and incubated for two days in a 5% CO2 incubator at 37 °C. Then, the cells were treated with the synthesized compounds and the cell cultures were continued incubated for 24 h. However, Different concentrations of the compound under test (0.0, 5.0, 12.5, 25.0 and 50 mg/ml) were added to the cell monolayer. Then, (3-[4,5-dimethylthiazol-2-yl]- 2,5-diphenyltetrazolium bromide) MTT solution (20 µl, 5mg/mL) was added to each well and incubated for additional 4 h. The formed purple crystals of MTT-formazan were dissolved in 100 µl DMSO each well; the absorbance of each well was measured at 570 nm using a plate reader (EXL 800, USA). All of the compounds were tested three times. The relative cell viability in percentage was calculated.
The data represented the mean of three independent experiments in triplicate and were expressed as means ± SD. […]

[2] = target: T1, human Topo II (Homo sapiens, UniProt P11388); assay: Topoisomerase II inhibitory activity (TopoGEN drug screening kit); format: biochemical; conditions: three independent experiments
T1 construct: purchased TopoGEN, Inc., Columbus
Description: The activity of topoisomerase II was determined according to the reported procedure described by Patra et al.[42]. […]
4.2.3. Measurement of topoisomerase II activity
Compounds (8a, 8b, 9a, 9c, 9d, 12a, and 12b) were further evaluated to assess their Topo II inhibitory activities. In this test, Topo II drug screening kit (TopoGEN, Inc., Columbus) was utilized to determine the Topo II activity. […] A typical enzyme […]
reaction contained a mixture of human Topo II (2 µL), substrate super coiled pHot1 DNA (0.25 µg), 50 µg/mL test compound (2 µL), and assay buffer (4 µL). The reaction started upon incubation of the mixture in 37 °C for 30 min. The reaction was terminated by addition of 10% sodium dodecylsulphate (2 µL) and proteinase K (50 µg/mL) at 37 °C for 15 min. followed by incubation for 15 min at 37 °C.
Then, the DNA was run on 1% agarose gel in BioRad gel electrophoresis system for 1–2 h followed by staining with GelRedTM stain for 2 h and destained for 15 min with TAE buffer. The gel was imaged Via BioRad’s Gel DocTMEZ system. Both supercoiled and linear strands DNA were incorporated in the gel as markers for DNA-Topo II intercalators. The results of IC50 values were calculated using the GraphPad Prism version 5.0. Each reaction was performed in duplicate, and at least three independent determinations of each IC50 were made.

[3] = Hematological and biochemical blood assays in SEC-bearing mice; format: in vivo, Swiss albino mice; conditions: 5 mg/kg BW, Mean ± SEM (n = 7), 5 mg/kg
Description: At the end of the experiment, animals from different groups were sacrificed, and blood samples were collected for hematological parameters, including Hb, RBC’s, and WBC’s levels, and serum for determination of liver enzymes ALT, AST levels, and proteins.
The experimental animals were randomly divided into four groups. Group 1 served as the normal saline control (5 ml/kg B.Wt., I.P.). Group 2 served as the SEC control (1 × 10^6 cells/mouse). Group 3 served as the compound-treated group (5 mg/kg B.Wt., I.P.). […] Bodyweight and survival were recorded daily until the 24th day in both treated and control groups. At the end of the experiment, the blood of each group was collected under light anaesthesia to the estimate of hematological and biochemical assays. The anaesthetised animals were then sacrificed for evaluation of the antitumor activity and histopathological examination.
At the end of the experiment, animals from different groups were sacrificed, and blood samples were collected for hematological parameters including, Hb, RBC’s, and WBC’s levels, and serum for determination of liver enzymes ALT, AST levels, and proteins. Complete blood count (CBC) was investigated using the Abbott CELL-DYN®1800 automated haematology analyser (USA) using ready-made kits (Abbott Laboratories, Abbott Park, IL, USA). Activities of aspartate aminotransferase (AST) and alanine aminotransferase (ALT) were evaluated using commercial kits (ELITech clinical systems, France). Serum albumin level was determined by kit purchased from STANBIO Company (USA). Protein content was determined by colorimetric method using ready-made kits produced by Instrumentation Laboratory SpA, Inova diagnostics, Milano, Italy.

T1 sequence (P11388 whole entry): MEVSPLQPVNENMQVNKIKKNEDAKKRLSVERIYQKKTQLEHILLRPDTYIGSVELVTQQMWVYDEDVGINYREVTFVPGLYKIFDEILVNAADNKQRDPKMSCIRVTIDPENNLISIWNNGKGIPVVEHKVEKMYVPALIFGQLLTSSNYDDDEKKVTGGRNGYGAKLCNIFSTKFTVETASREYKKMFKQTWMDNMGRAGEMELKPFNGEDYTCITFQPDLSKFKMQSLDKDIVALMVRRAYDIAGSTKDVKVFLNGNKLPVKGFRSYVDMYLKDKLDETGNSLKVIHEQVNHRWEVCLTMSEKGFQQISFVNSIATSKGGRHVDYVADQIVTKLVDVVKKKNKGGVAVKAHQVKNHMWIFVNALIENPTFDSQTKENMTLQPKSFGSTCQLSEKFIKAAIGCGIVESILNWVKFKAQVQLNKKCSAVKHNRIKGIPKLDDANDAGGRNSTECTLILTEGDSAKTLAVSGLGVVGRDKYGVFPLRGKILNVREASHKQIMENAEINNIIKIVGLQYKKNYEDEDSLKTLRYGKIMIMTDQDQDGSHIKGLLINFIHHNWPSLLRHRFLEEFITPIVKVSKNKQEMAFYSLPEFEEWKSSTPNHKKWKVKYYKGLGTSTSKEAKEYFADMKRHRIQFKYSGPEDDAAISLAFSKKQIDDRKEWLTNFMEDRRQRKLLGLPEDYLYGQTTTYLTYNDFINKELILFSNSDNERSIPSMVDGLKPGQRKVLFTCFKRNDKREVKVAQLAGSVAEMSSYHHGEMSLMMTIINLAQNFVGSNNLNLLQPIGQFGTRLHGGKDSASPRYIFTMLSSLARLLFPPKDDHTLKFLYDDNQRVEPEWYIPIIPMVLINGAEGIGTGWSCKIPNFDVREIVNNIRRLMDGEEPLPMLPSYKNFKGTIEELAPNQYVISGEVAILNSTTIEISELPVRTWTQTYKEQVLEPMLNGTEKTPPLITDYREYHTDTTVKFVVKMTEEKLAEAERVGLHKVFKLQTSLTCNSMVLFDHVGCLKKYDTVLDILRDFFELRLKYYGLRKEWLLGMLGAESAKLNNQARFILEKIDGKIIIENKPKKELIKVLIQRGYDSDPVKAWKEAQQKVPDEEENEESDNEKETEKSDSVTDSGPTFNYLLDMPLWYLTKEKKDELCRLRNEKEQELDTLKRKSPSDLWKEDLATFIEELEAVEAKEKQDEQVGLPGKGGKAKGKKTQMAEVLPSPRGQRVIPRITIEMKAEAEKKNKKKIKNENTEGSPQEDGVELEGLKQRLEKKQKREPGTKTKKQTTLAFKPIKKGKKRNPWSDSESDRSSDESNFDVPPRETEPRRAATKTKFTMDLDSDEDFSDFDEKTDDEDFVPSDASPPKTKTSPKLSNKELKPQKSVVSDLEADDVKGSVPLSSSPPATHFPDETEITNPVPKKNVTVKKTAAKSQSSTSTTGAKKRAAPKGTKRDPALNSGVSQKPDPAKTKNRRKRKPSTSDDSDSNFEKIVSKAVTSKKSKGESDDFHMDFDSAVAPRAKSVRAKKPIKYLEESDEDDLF

## CCCc1nnc2c3ccccc3c(NN=Cc3ccc([N+](=O)[O-])cc3)nn12 [Compound 9d, 6-[2–(4-Nitrobenzylidene)hydrazineyl]-3-propyl-[1,2, 4]triazolo[3,4-a]phthalazine]
[1]; Homo sapiens, HepG2, MTT, mean ± SD of three separate experiments, read-out: In vitro Cytotoxicity IC50 HepG-2
  IC50: 5.08 ± 0.17 µM
[1]; ratio of IC50 values vs doxorubicin
  times more active than doxorubicin, HepG2: 1.63 times
[2]
  IC50: 7.02 ± 0.54 µM
[3]
  ALT: 42.9 U/L
  AST: 55.6 U/L
  Albumin: 6.25 g/dL
  Hb: 8.2 g/dL
  RBCs count: 5.37 ×10^6/µL and 5.37 ± 0.37 ×10^6/µL
  Total Protein: 8.04 g/dL
  WBCs count: 3720 µL⁻¹

Source: PMC8667898, “Topo II inhibition and DNA intercalation by new phthalazine-based derivatives as potent anticancer agents: design, synthesis, anti-proliferative, docking, and in vivo studies” (Journal of Enzyme Inhibition and Medicinal Chemistry, 2021)
